# According to US20070066608A1, “Novel indole derivatives with an improved antipsychotic activity” (priority 2003, published 2007):
# Legend:
# [1] = molecular target: T1, Human Dopamine D4 receptor (Homo sapiens, UniProt P21917); experiment: Radioligand binding experiment for dopamine D4 receptor (hD4), [125I]Spiperone; conditions: membranes of D4 receptor-transfected Sf9 cells, read-out: pIC50 D4 (converted)
# T1 construct: expressed in transfected cells; host or cells: Sf9 cells
# T1 sequence (P21917 1-419): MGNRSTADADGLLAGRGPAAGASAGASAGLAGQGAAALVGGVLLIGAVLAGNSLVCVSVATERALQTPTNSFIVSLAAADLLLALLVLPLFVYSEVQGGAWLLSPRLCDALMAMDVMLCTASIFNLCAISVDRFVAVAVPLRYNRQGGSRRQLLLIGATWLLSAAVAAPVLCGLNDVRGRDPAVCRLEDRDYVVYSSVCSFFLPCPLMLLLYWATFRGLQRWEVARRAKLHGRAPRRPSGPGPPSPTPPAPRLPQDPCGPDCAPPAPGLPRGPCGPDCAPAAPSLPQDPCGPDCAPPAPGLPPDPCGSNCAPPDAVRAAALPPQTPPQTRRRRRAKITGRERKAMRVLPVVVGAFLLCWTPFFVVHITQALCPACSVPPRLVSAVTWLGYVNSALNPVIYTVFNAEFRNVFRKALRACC
# Experimental: The interaction of the compounds of Formula (I) with dopamine-receptors, h5HT-transporter and h5HT1A receptor was assessed in in vitro radioligand binding experiments. In general, a low concentration of a radioligand with a high binding affinity for a particular receptor or transporter is incubated with a sample of a tissue preparation enriched in a particular receptor or transporter or with a preparation of cells expressing cloned human receptors in a buffered medium. During the incubation, the radioligand binds to the receptor or transporter. When equilibrium of binding is reached, the receptor bound radioactivity is separated from the non-bound radioactivity, and the receptor- or transporter-bound activity is counted The interaction of the test compounds with the receptor is assessed in competition binding experiments. Various concentrations of the test compound are added to the incubation mixture containing the receptor- or transporter preparation and the radioligand. […]
# Human Dopamine D4 receptor-transfected Sf9 cells were collected by scraping into ice-cold Tris-HCl buffer (50 mM, pH 7.4). […] Filters were allowed to dry before adding scintillation fluid and counting in a Topcount scintillation counter. % Specific bound and competition binding curves were calculated using S-Plus software (Insightful).
# [2] = molecular target: T2, Human Dopamine D2L receptor (Homo sapiens, UniProt P14416); experiment: Radioligand binding experiment for dopamine D2 receptor (hD2), [3H]Spiperone; conditions: membranes of D2L receptor-transfected CHO cells, read-out: pIC50 D2 (converted)
# T2 construct: expressed in transfected cells; host or cells: CHO cells
# Experimental: The interaction of the compounds of Formula (I) with dopamine-receptors, h5HT-transporter and h5HT1A receptor was assessed in in vitro radioligand binding experiments. In general, a low concentration of a radioligand with a high binding affinity for a particular receptor or transporter is incubated with a sample of a tissue preparation enriched in a particular receptor or transporter or with a preparation of cells expressing cloned human receptors in a buffered medium. During the incubation, the radioligand binds to the receptor or transporter. When equilibrium of binding is reached, the receptor bound radioactivity is separated from the non-bound radioactivity, and the receptor- or transporter-bound activity is counted The interaction of the test compounds with the receptor is assessed in competition binding experiments. Various concentrations of the test compound are added to the incubation mixture containing the receptor- or transporter preparation and the radioligand. The test compound in proportion to its binding affinity and its concentration inhibits binding of the radioligand.
# Human Dopamine D2L receptor-transfected CHO cells were collected by scraping into ice-cold Tris-HCl buffer ([…], pH 7.4). The suspension was centrifuged (23 500×g, 10 min, 4° C.) and pellets stored at −70° C. until require. They were then thawed and briefly homogenised using an Ultra-Turrax T25 homogeniser prior to dilution to an appropriate protein concentration optimised for specific and non-specific binding. [^3H]Spiperone (NEN, specific activity˜70 Ci/mmol) was diluted in Tris-HCl assay buffer containing NaCl, CaCl2, MgCl2, KCI (50, 120, 2, 1, and 5 mM respectively, adjusted to pH 7.7 with HCl) at a concentration of 2 nmol/L. Prepared radioligand (50 μl) was then incubated (30 min, 37° C.) with membrane preparations pre-diluted to an appropriate protein concentration (400 μl), and with 50 μl of either the 10% DMSO control, Butaclamol (10^−6 mol/L final concentration), or compound of interest. Membrane-bound activity was detected by filtration through a Packard Filtermate harvester onto Unifilterplates, washing with ice-old Tris-HCl buffer (50 mM; pH8.0; 3×4 ml). Filters were allowed to dry before adding scintillation fluid and counting in a Topcount scintillation counter. % Specific bound and competition binding curves were calculated using S-Plus software (Insightful).
# T2 sequence (P14416 whole entry): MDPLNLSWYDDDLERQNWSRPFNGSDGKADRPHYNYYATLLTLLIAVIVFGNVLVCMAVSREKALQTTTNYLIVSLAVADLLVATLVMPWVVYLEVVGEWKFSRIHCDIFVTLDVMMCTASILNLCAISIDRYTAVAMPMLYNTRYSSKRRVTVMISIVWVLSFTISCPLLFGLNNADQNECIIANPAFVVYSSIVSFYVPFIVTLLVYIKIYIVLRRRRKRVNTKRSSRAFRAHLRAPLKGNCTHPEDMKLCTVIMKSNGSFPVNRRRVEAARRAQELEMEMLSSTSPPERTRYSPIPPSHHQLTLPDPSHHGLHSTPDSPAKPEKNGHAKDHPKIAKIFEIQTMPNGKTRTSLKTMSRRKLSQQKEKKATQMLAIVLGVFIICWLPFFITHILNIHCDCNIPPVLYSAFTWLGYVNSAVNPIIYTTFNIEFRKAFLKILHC
smiles,measurement,setting,value
Fc1ccc2[nH]cc(C3=CCN(CC4Oc5cccnc5O4)CC3)c2c1 (centres unmarked) [Compound 7],IC50,[1],501 nM
same,IC50,[2],251 nM
